According to patent US20230365592A1 (Agios Pharmaceuticals, Inc., priority 2022, published 2023):

molecular target: T1, human PAH with the R408W mutation (Homo sapiens, UniProt P00439, R408W); test: Cell Based Phenylalanine Flux Assay; conditions: A375 cells expressing human R408W PAH; 24 hrs compound incubation; 13C-Tyrosine by LC-MS; average where tested multiple times; read-out: AC50;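 further: after compound treatment, cells received sepiapterin plus isotope-labelled Phenylalanine for 4 hours, then labelled Tyrosine in the medium was quantified, 10-point 2-fold dilution series run in duplicate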
T1 construct: expressed in transfected cells
T1 sequence (P00439 1-452 R408W): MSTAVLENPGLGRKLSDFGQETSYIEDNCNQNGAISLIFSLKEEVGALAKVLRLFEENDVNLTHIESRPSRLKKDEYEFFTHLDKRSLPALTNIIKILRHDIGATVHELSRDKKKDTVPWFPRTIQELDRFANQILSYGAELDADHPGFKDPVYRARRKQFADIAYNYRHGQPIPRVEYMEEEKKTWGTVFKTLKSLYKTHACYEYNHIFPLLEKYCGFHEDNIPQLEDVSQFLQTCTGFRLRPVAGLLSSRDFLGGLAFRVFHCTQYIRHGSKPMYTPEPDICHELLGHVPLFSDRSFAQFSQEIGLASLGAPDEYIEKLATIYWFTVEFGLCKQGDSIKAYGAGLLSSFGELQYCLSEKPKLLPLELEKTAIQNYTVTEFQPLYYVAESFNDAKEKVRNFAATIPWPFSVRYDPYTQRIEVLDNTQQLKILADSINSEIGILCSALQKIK

AC50, > 5000 nM:
Cc1cccn2nc([C@H]3c4nc[nH]c4CCN3C(=O)c3nnc(N4CCC(F)CC4)o3)cc12 [Example 1013, (R)-(5-(4-fluoropiperidin-1-yl)-1,3,4-oxadiazol-2-yl)(4-(4-methylpyrazolo[1,5-a]pyridin-2-yl)-6,7-dihydro-1H-imidazo[4,5-c]pyridin-5(4H)-yl)methanone]
O=C(c1nnc(N2CCC(F)CC2)o1)N1CCc2[nH]cnc2[C@@H]1c1cc2c(F)cccn2n1 [Example 1015, (R)-(5-(4-fluoropiperidin-1-yl)-1,3,4-oxadiazol-2-yl)(4-(4-fluoropyrazolo[1,5-a]pyridin-2-yl)-6,7-dihydro-1H-imidazo[4,5-c]pyridin-5(4H)-yl)methanone]
Cc1cccn2nc([C@H]3c4nc[nH]c4CCN3C(=O)c3nnc(-c4ccnn4C)o3)cc12 [Example 1017, (R)-(5-(1-methyl-1H-pyrazol-5-yl)-1,3,4-oxadiazol-2-yl)(4-(4-methylpyrazolo[1,5-a]pyridin-2-yl)-6,7-dihydro-1H-imidazo[4,5-c]pyridin-5(4H)-yl)methanone]
Cn1nccc1-c1nnc(C(=O)N2CCc3[nH]cnc3[C@@H]2c2cc3c(F)cccn3n2)o1 [Example 1019, (R)-(4-(4-fluoropyrazolo[1,5-a]pyridin-2-yl)-6,7-dihydro-1H-imidazo[4,5-c]pyridin-5(4H)-yl)(5-(1-methyl-1H-pyrazol-5-yl)-1,3,4-oxadiazol-2-yl)methanone]

AC50, 1000 to 5000 nM:
Cc1cccc2cc([C@H]3c4nc[nH]c4CCN3C(=O)c3nnc(C(C)(C)C)o3)nn12 [Example 1021, (R)-(5-(tert-butyl)-1,3,4-oxadiazol-2-yl)(4-(7-methylpyrazolo[1,5-a]pyridin-2-yl)-6,7-dihydro-1H-imidazo[4,5-c]pyridin-5(4H)-yl)methanone]

AC50, 500 to 1000 nM:
CC(C)(O)c1nc(Cl)c(C(=O)N2CCc3[nH]cnc3[C@H]2c2cc3ccccn3n2)o1 [Example 990, (S)-(4-chloro-2-(2-hydroxypropan-2-yl)oxazol-5-yl)(4-(pyrazolo[1,5-a]pyridin-2-yl)-6,7-dihydro-1H-imidazo[4,5-c]pyridin-5(4H)-yl)methanone]
Cc1nc(C(C)(C)C#N)oc1C(=O)N1CCc2[nH]cnc2[C@H]1c1cc2ccccn2n1 [Example 992, (S)-2-methyl-2-(4-methyl-5-(4-(pyrazolo[1,5-a]pyridin-2-yl)-4,5,6,7-tetrahydro-1H-imidazo[4,5-c]pyridine-5-carbonyl)oxazol-2-yl)propanenitrile]
Cc1nc(C(C)(C)O)oc1C(=O)N1CCc2[nH]cnc2[C@H]1c1cc2c(F)cccn2n1 [Example 1000, (S)-(4-(4-fluoropyrazolo[1,5-a]pyridin-2-yl)-6,7-dihydro-1H-imidazo[4,5-c]pyridin-5(4H)-yl)(2-(2-hydroxypropan-2-yl)-4-methyloxazol-5-yl)methanone]
O=C(c1ocnc1C(F)F)N1CCc2[nH]cnc2[C@@H]1c1cc2c(C(F)(F)F)cccn2n1 [Example 1003, (R)-(4-(difluoromethyl)oxazol-5-yl)(4-(4-(trifluoromethyl)pyrazolo[1,5-a]pyridin-2-yl)-6,7-dihydro-1H-imidazo[4,5-c]pyridin-5(4H)-yl)methanone]
O=C(c1oc(-c2ccccn2)nc1C(F)F)N1CCc2[nH]cnc2[C@@H]1c1cc2c(F)cccn2n1 [Example 1007, (R)-(4-(difluoromethyl)-2-(pyridin-2-yl)oxazol-5-yl)(4-(4-fluoropyrazolo[1,5-a]pyridin-2-yl)-6,7-dihydro-1H-imidazo[4,5-c]pyridin-5(4H)-yl)methanone]
Cc1cccn2nc([C@H]3c4nc[nH]c4CCN3C(=O)c3oc(-c4cnn(C)c4)nc3C(F)F)cc12 [Example 1009, (R)-(4-(difluoromethyl)-2-(1-methyl-1H-pyrazol-4-yl)oxazol-5-yl)(4-(4-methylpyrazolo[1,5-a]pyridin-2-yl)-6,7-dihydro-1H-imidazo[4,5-c]pyridin-5(4H)-yl)methanone]
Cc1nnc(C(=O)N2CCc3[nH]cnc3[C@H]2c2cc3c(C)cccn3n2)o1 [Example 1010, (S)-(5-methyl-1,3,4-oxadiazol-2-yl)(4-(4-methylpyrazolo[1,5-a]pyridin-2-yl)-6,7-dihydro-1H-imidazo[4,5-c)pyridin-5(4H)-yl)methanone]
Cc1cccn2nc([C@@H]3c4nc[nH]c4CCN3C(=O)c3nnc(N4CCC(F)CC4)o3)cc12 [Example 1012, (S)-(5-(4-fluoropiperidin-1-yl)-1,3,4-oxadiazol-2-yl)(4-(4-methylpyrazolo[1,5-a]pyridin-2-yl)-6,7-dihydro-1H-imidazo[4,5-c]pyridin-5(4H)-yl)methanone]

AC50, < 500 nM:
O=C(c1oc(C2(O)CC2)nc1C(F)F)N1CCc2[nH]cnc2[C@H]1c1cc2ccccn2n1 [Example 994, (S)-(4-(difluoromethyl)-2-(1-hydroxycyclopropyl)oxazol-5-yl)(4-(pyrazolo[1,5-a]pyridin-2-yl)-6,7-dihydro-1H-imidazo[4,5-c]pyridin-5(4H)-yl)methanone]
Cc1ccn2nc([C@H]3c4nc[nH]c4CCN3C(=O)c3ocnc3C(F)F)cc2c1 [Example 1005, (R)-(4-(difluoromethyl)oxazol-5-yl)(4-(5-methylpyrazolo[1,5-a]pyridin-2-yl)-6,7-dihydro-1H-imidazo[4,5-c]pyridin-5(4H)-yl)methanone]
O=C(c1nnc(N2CCC(F)CC2)o1)N1CCc2[nH]cnc2[C@H]1c1cc2c(F)cccn2n1 [Example 1014, (S)-(5-(4-fluoropiperidin-1-yl)-1,3,4-oxadiazol-2-yl)(4-(4-fluoropyrazolo[1,5-a]pyridin-2-yl)-6,7-dihydro-1H-imidazo[4,5-c]pyridin-5(4H)-yl)methanone]
Cc1cccn2nc([C@@H]3c4nc[nH]c4CCN3C(=O)c3nnc(-c4ccnn4C)o3)cc12 [Example 1016, (S)-(5-(1-methyl-1H-pyrazol-5-yl)-1,3,4-oxadiazol-2-yl)(4-(4-methylpyrazolo[1,5-a]pyridin-2-yl)-6,7-dihydro-1H-imidazo[4,5-c]pyridin-5(4H)-yl)methanone]
Cn1nccc1-c1nnc(C(=O)N2CCc3[nH]cnc3[C@H]2c2cc3c(F)cccn3n2)o1 [Example 1018, (S)-(4-(4-fluoropyrazolo[1,5-a]pyridin-2-yl)-6,7-dihydro-1H-imidazo[4,5-c]pyridin-5(4H)-yl)(5-(1methyl-1H-pyrazol-5-yl)-1,3,4-oxadiazol-2-yl)methanone]
Cc1cccc2cc([C@@H]3c4nc[nH]c4CCN3C(=O)c3nnc(C(C)(C)C)o3)nn12 [Example 1020, (S)-(5-(tert-butyl)-1,3,4-oxadiazol-2-yl)(4-(7-methylpyrazolo[1,5-a]pyridin-2-yl)-6,7-dihydro-1H-imidazo[4,5-c]pyridin-5(4H)-yl)methanone]
CC(C)(F)c1nnc(C(=O)N2CCc3[nH]cnc3[C@H]2c2cc3c(F)cccn3n2)o1 [Example 1024, (S)-(5-(2-fluoropropan-2-yl)-1,3,4-oxadiazol-2-yl)(4-(4-fluoropyrazolo[1,5-a]pyridin-2-yl)-6,7-dihydro-1H-imidazo[4,5-c]pyridin-5(4H)-yl)methanone]
